Data as given in patent US20230348369A1 (Cytokinetics, Inc., priority 2020, published 2023).
pEC50: −log10 of the molar value. Like-named read-outs stand apart in the source and are kept apart here.

Biological target: human NAMPT (Homo sapiens, UniProt P43490)
Assay: Human recombinant enzyme assay (NMN fluorescence biochemical assay, activation of NAMPT)
Outline: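 Activation of recombinant human NAMPT (6 nM) with 2.5 mM ATP, 20 μM PRPP and 150 μM nicotinamide in 50 mM HEPES pH 7.2, 1 mM DTT, 1 mM CHAPS, 50 mM NaCl, 100 mM MgCl2; 60 min, ambient temperature. NMN formed was derivatized with acetophenone/KOH/formic acid, fluorescence read at 355/460 nm after 40 min.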

[1] = Table A, human recombinant NAMPT, NMN formation, 60 min
[2] = Table A, human recombinant NAMPT, NMN formation, 60 min, read-out: EC50 Human

Sequence of human NAMPT (P43490 whole entry): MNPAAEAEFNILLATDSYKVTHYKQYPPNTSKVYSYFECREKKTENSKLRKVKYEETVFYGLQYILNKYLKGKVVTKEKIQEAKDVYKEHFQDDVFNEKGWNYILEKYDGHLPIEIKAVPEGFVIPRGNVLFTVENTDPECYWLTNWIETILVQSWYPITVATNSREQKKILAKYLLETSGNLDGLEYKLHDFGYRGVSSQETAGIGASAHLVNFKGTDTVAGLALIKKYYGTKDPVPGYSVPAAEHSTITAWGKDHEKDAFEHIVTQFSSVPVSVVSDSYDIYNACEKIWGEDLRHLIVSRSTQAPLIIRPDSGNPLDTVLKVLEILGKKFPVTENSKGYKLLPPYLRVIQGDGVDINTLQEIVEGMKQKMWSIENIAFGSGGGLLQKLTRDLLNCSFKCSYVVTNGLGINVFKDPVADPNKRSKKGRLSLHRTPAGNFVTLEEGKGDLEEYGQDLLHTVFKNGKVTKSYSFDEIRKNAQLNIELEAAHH

Structure (SMILES) | AC1.4 Human [1] [µM] | pEC50 [2] | pEC50
CN(C(=O)CCCCCNC(=O)NCc1ccncc1)c1ccccc1F [Compound 286, N-(2-fluorophenyl)-N-methyl-6-(3-(pyridin-4-ylmethyl)ureido)hexanamide] | 0.2 | 5.70 | 
Cc1ccc(C(=O)N2CC3(CC(NC(=O)NCc4cn[nH]c4)C3)C2)cc1 [Compound 227, 1-((1H-pyrazol-4-yl)methyl)-3-(2-(4-methylbenzoyl)-2-azaspiro[3.3]heptan-6-yl)urea] | 2.0 | 4.47 | 
CC(C)(O)CN1CCN(C(=O)C2CC3(CC(NC(=O)NCc4ccc(F)cc4)C3)C2)CC1 (stereo not drawn) [Compound 109, 1-(4-fluorobenzyl)-3-(6-(4-(2-hydroxy-2-methylpropyl)piperazine-1-carbonyl)spiro[3.3]heptan-2-yl)urea] | 3.5 | 4.99 | 
O=C1CC(C(=O)NCC2CC3(C2)CC(NC(=O)NCc2ccc(Cl)cc2)C3)CCN1 (stereo not drawn) [Compound 252, N-((6-(3-(4-chlorobenzyl)ureido)spiro[3.3]heptan-2-yl)methyl)-2-oxopiperidine-4-carboxamide] | 2.8 | 5.04 | 
O=C(NCc1ccc(Cl)cc1)NC1CC2(CC(CC(=O)N3CCCC3)C2)C1 (stereo not drawn) [Compound 236, 1-(4-chlorobenzyl)-3-(6-(2-oxo-2-(pyrrolidin-1-yl)ethyl)spiro[3.3]heptan-2-yl)urea] | 3.6 | 5.24 | 
COc1ccc(CNC(=O)NC2CC3(C2)CN(C(=O)Cc2ccccc2C(F)(F)F)C3)cc1 [Compound 41, 1-(4-methoxybenzyl)-3-(2-(2-(2-(trifluoromethyl)phenyl)acetyl)-2-azaspiro[3.3]heptan-6-yl)urea] | 5.0 | 4.27 | 
COc1ccc(CNC(=O)NC2CC3(C2)CC(OCc2cccnc2)C3)cc1 (stereo not drawn) [Compound 351, 1-(4-methoxybenzyl)-3-(6-(pyridin-3-ylmethoxy)spiro[3.3]heptan-2-yl)urea] | 4.0 | 4.41 | 
COc1ccc(CNC(=O)NC2CC3(C2)CC(C(=O)N(C)[C@H](C)c2ccccc2F)C3)cc1 (stereo partly drawn) [Compound 53, (R)-N-(1-(2-fluorophenyl)ethyl)-6-(3-(4-methoxybenzyl)ureido)-N-methylspiro[3.3]heptane-2-carboxamide] | 0.3 | 5.07 | 
O=C(NCCCCC1CCN(C(=O)Cc2cccnc2)CC1)NCc1ccc(Cl)cc1 [Compound 294, 1-(4-chlorobenzyl)-3-(4-(1-(2-(pyridin-3-yl)acetyl)piperidin-4-yl)butyl)urea] | 1.0 | 5.00 | 
COc1ccc(CNC(=O)NC2CC3(C2)CC(C(=O)N2CCCc4ccc(C)cc42)C3)cc1 (stereo not drawn) [Compound 108, 1-(4-methoxybenzyl)-3-(6-(7-methyl-1,2,3,4-tetrahydroquinoline-1-carbonyl)spiro[3.3]heptan-2-yl)urea] | 0.1 | 5.85 | 
Cc1ccncc1C(=O)NC1CC2(CC(NC(=O)NCc3ccc(Cl)cc3)C2)C1 (stereo not drawn) [Compound 205, N-(6-(3-(4-chlorobenzyl)ureido)spiro[3.3]heptan-2-yl)-4-methylnicotinamide] | 10.0 | 4.63 | 
COc1ccc(CNC(=O)NC2CC3(C2)CN(C(=O)C(C)(C)c2cccc(C)c2)C3)cc1 [Compound 154, 1-(4-methoxybenzyl)-3-(2-(2-methyl-2-(m-tolyl)propanoyl)-2-azaspiro[3.3]heptan-6-yl)urea] | 2.1 | 4.51 | 
CN1CCN(CC2CC3(C2)CC(NC(=O)NCc2ccc(Cl)cc2)C3)CC1=O (stereo not drawn) [Compound 238, 1-(4-chlorobenzyl)-3-(6-((4-methyl-3-oxopiperazin-1-yl)methyl)spiro[3.3]heptan-2-yl)urea] | 3.4 | 4.69 | 
O=C(CCCCCNC(=O)NCc1ccc(Cl)cc1)Nc1ccccc1F [Compound 272, 6-(3-(4-chlorobenzyl)ureido)-N-(2-fluorophenyl)hexanamide] | 0.9 | 5.59 | 
O=C(NCc1ccc(Cl)cc1)NC1CC2(CC(Cc3ncccn3)C2)C1 (stereo not drawn) [Compound 340, 1-(4-chlorobenzyl)-3-(6-(pyrimidin-2-ylmethyl)spiro[3.3]heptan-2-yl)urea] | 3.7 |  | 5.25
O=C(NCc1ccc(Cl)cc1)N[C@H]1C[C@]2(CCN(C(=O)N3CCC(N4CCCCC4)CC3)C2)C1 [Compound 354, 1-((2r,4s)-6-([1,4′-bipiperidine]-1′-carbonyl)-6-azaspiro[3.4]octan-2-yl)-3-(4-chlorobenzyl)urea] | 4.2 |  | 
O=C(NCCCCN1CCN(C(=O)c2ccccc2)CC1)NCc1ccc(Cl)cc1 [Compound 317, 1-(4-(4-benzoylpiperazin-1-yl)butyl)-3-(4-chlorobenzyl)urea] | 4.2 | 4.60 | 

Structure (SMILES) | AC1.4 Human [1] [µM] | pEC50 [2] | pEC50
COc1ccc(CNC(=O)NC2CC3(C2)CN(C(=O)Nc2cnc(C)nc2)C3)cc1 [Compound 133, 6-(3-(4-methoxybenzyl)ureido)-N-(2-methylpyrimidin-5-yl)-2-azaspiro[3.3]heptane-2-carboxamide] | 17.5 | 4.21 | 
CC(C)(C)OC(=O)NC1CC2(CC(NC(=O)NCc3ccc(Cl)cc3)C2)C1 (racemic) [Compound 8] |  | 5.29 | 
CN(C)c1ccccc1C(=O)NC1CC2(CC(NC(=O)NCc3ccc(Cl)cc3)C2)C1 (stereo not drawn) [Compound 209, N-(6-(3-(4-chlorobenzyl)ureido)spiro[3.3]heptan-2-yl)-2-(dimethylamino)benzamide] | 10.6 | 4.41 | 
COc1ccc(CNC(=O)NC2CC3(C2)CN(C(=O)Cc2ccccc2Cl)C3)cc1 [Compound 39, 1-(2-(2-(2-chlorophenyl)acetyl)-2-azaspiro[3.3]heptan-6-yl)-3-(4-methoxybenzyl)urea] | 5.6 | 4.38 | 
COc1ccc(CNC(=O)NC2CC3(C2)CN(S(=O)(=O)Cc2ccccc2Cl)C3)cc1 [Compound 117, 1-(2-((2-chlorobenzyl)sulfonyl)-2-azaspiro[3.3]heptan-6-yl)-3-(4-methoxybenzyl)urea] | 3.2 | 4.47 | 
COc1ccc(CNC(=O)NC2CC3(C2)CC(C(=O)NCc2ccnc(OC(F)F)c2)C3)cc1 (stereo not drawn) [Compound 88, N-((2-(difluoromethoxy)pyridin-4-yl)methyl)-6-(3-(4-methoxybenzyl)ureido)spiro[3.3]heptane-2-carboxamide] | 16.3 | 4.31 | 
Cc1ccc(C(=O)N2CC3(CC(NC(=O)NCc4ccc(F)cc4)C3)C2)cc1 [Compound 207, 1-(4-fluorobenzyl)-3-(2-(4-methylbenzoyl)-2-azaspiro[3.3]heptan-6-yl)urea] | 13.7 | 5.18 | 
COc1ccc(CNC(=O)NC2CC3(C2)CC(C(=O)N2CCC[C@@H]2c2cccnc2)C3)cc1 (stereo partly drawn) [Compound 59, (R)-1-(4-methoxybenzyl)-3-(6-(2-(pyridin-3-yl)pyrrolidine-1-carbonyl)spiro[3.3]heptan-2-yl)urea] | 11.2 | 4.39 | 
O=C(NCc1ccc(Cl)cc1)NC1CC2(C1)CC(N(Cc1ccccc1)Cc1ccccc1)C2 (stereo not drawn) [Compound 119, 1-(4-chlorobenzyl)-3-(6-(dibenzylamino)spiro[3.3]heptan-2-yl)urea] | 3.8 | 4.78 | 
NC(=O)c1ccc(CNC(=O)NC2CC(c3ccccc3)C2)cc1 (stereo not drawn) [Compound 4, 4-((3-(3-phenylcyclobutyl)ureido)methyl)benzamide] | 9.9 |  | 
CS(=O)(=O)C1CC2(CC(NC(=O)NCc3ccc(Cl)cc3)C2)C1 (stereo not drawn) [Compound 342, 1-(4-chlorobenzyl)-3-(6-(methylsulfonyl)spiro[3.3]heptan-2-yl)urea] | 33.1 | 4.25 | 
N#Cc1cnn(CC2CC3(C2)CC(NC(=O)NCc2ccc(Cl)cc2)C3)c1 (stereo not drawn) [Compound 333, 1-(4-chlorobenzyl)-3-(6-((4-cyano-1H-pyrazol-1-yl)methyl)spiro[3.3]heptan-2-yl)urea] | 1.8 |  | 5.36
CC(C(=O)N(C)Cc1ccccc1)C1CC2(CC(NC(=O)NCc3ccc(Cl)cc3)C2)C1 (stereo not drawn) [Compound 237, N-benzyl-2-(6-(3-(4-chlorobenzyl)ureido)spiro[3.3]heptan-2-yl)-N-methylpropanamide] | 2.4 | 5.59 | 
O=C(NCCCCC1CCN(c2ccccn2)CC1)NCc1ccc(Cl)cc1 [Compound 307, 1-(4-chlorobenzyl)-3-(4-(1-(pyridin-2-yl)piperidin-4-yl)butyl)urea] | 1.9 | 5.14 | 
COc1ccc(CNC(=O)NC2CC3(C2)CC(C(=O)N[C@H]2CCc4ccccc42)C3)cc1 (stereo partly drawn) [Compound 92, (S)-N-(2,3-dihydro-1H-inden-1-yl)-6-(3-(4-methoxybenzyl)ureido)spiro[3.3]heptane-2-carboxamide] | 2.9 | 4.87 | 
O=C(NCc1ccc(Cl)cc1)NC1CC2(C1)CC(Oc1cccnc1)C2 (stereo not drawn) [Compound 343, 1-(4-chlorobenzyl)-3-(6-(pyridin-3-yloxy)spiro[3.3]heptan-2-yl)urea] | 3.0 |  | 5.25
